What is called DC50 is the concentration at which degradation of the target reaches its halfway point. What is called pIC50 is −log10 of the IC50, conventionally taken in molar units. A word on the IC50: it is the concentration at which inhibition is half-maximal.

The source of these data is US12545659B2, “IRAK degraders and uses thereof” (Kymera Therapeutics, Inc., priority 2019, dated 2026).

The conditions of data set [1]: cn_pd bond, 14-membered ring.
The target in the next data set is T1, IRAK4 (Homo sapiens, UniProt Q9NWZ3).
T1 construct: endogenous in cells; host or cells: OCI-LY10
T1 sequence (Q9NWZ3 1-460): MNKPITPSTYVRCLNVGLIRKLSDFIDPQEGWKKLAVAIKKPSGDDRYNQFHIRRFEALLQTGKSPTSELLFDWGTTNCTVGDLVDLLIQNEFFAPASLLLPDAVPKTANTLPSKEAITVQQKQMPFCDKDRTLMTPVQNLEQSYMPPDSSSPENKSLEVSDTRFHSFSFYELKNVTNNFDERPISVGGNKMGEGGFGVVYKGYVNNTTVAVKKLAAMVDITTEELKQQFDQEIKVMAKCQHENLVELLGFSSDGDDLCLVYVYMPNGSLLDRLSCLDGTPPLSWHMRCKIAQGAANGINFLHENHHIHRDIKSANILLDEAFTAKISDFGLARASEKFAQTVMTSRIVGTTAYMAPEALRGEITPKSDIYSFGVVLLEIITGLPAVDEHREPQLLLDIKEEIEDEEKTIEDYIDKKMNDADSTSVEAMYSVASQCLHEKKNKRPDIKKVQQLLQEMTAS
The data set is described as follows: IRAK4 MSD Degradation in OCI-LY10. It counts as cell-based. The conditions noted are these: OCI-LY10 cells. Put shortly:
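OCI-LY10 cells treated with 8-dose, 1:3 dilution series (top final 1 to 10 μM) for 4 to 24 h at 37 °C, 5% CO2. Lysate IRAK4 quantified by MSD sandwich immunoassay (mouse 2H9 capture, rabbit Y279 detection, SULFO-TAG anti-rabbit); DC50 from three-parameter logistic fit.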

For data set [2], the target named is T2, Ikaros (protein product of gene IKZF1) (Homo sapiens, UniProt Q13422+Q96SW2).
T2 construct: endogenous in cells; host or cells: OCI-LY10
The experiment in a line: Ikaros degradation in OCI-LY10 (quantitative immunoblotting). The class given is cell-based. The note with it: OCI-LY10 cells, 6 h, immunoblot relative to actin; read-out: Ikros Degradation in OCI-LY10: DC50. As for the experimental part: (§1) Degradation of Ikaros (protein product of gene IKZF1) and Aiolos (protein product of gene IKZF3) were determined by quantitative immunoblotting as follows. OCI-LY10 cells, 2×10^6 cells/well, were treated with listed concentrations of IRAK4 degraders or control compounds in 6 well plates for 6 h. Cells were collected, washed with cold PBS, lysed in RIPA buffer (Boston BioProducts BP-115D) with protease/phosphatase inhibitor cocktail (Roche 05892791001/Roche 04906837001) and centrifuged at 13000 RPM for 20 min to precipitate insoluble material. The supernatant fraction was diluted in SDS-PAGE loading buffer (Beyotime Bio P0015) and 20 L of each sample was resolved on 4-12% Bis-Tris SDS-PAGE gels (Novex, WG1402BOX). Resolved samples were transferred to nitrocellulose membranes by wet electro-transfer method at […] for 1.5 h. The membrane was blocked with LICOR blocking buffer (LI-COR, 927-50000) for 1 hour, washed three times with TBST (CST #9997S) for 5 minutes each and incubated with primary antibody prepared in block buffer with 0.1% Tween-20 (Solarbio, P8220) at 4° C. overnight. Ikaros antibody was rabbit monoclonal D6N9Y (CST #14859), at 1:1000 dilution. Aiolos antibody was rabbit monoclonal D1C1E (CST #15103), at 1:1000 dilution. Signal was normalized to mouse anti-beta-Actin monoclonal 8H10D10 (CST #3700) used at 1:10,000 dilution. After incubation in primary antibodies, membranes were washed three times with TBST, 5 minutes each, incubated with fluorescently labeled secondary antibodies anti-rabbit IgG (Licor, 926-32211) at 1:5000 dilution; anti-mouse IgG (LI-COR, 926-68070) at 1:5000 dilution, for 1 hour at RT. After incubation in secondary, membranes were washed three times with TBST, 5 minutes each and read on LICOR Odyssey imager. Data was reported as signal for Ikaros or Aiolos relative to signal for actin, and normalized to DMSO-treated control.
(§2) The letter codes for Ikaros and Aiolos DC50 include: A (<0.05 μM); B (0.05-0.1 μM); C (0.1-0.5 μM); D (0.5-1.0 μM); and E (>1.0 μM).
Background: In western blotting, separated proteins are transferred to a membrane and probed.

The subject of the next data set is OCI-LY10 cells. The experiment in a line: CTG Cell Viability Assay - OCI-LY10. The note with it: Homo sapiens; for pIC50: 96 h, OCI-LY10 cells, 4 days, CellTiter-Glo, read-out: CTG Cell Viability Assay - OCI-LY10: IC50. It counts as cell-based. The protocol:
(§3) Compound-mediated viability effect on OCI-LY10 or SUDHL-2 was quantitatively determined using the CellTiter-Glo® Luminescent Cell Viability Assay kit from Promega (Catalog number G7570) following manufacturer's recommended procedures. Briefly, OCI-LY10 or SUDHL-2 cells were seeded into 384 well plates (Grenier Bio-One, Catalog number 781080) with a density of 10,000 cells per well. Compounds were then added to the assay plate with final top concentration of 10 M and 1:3 dilution series with total of 9 doses. The final DMSO concentration was normalized to 0.2%. The assay plates were incubated at 37° C. for 4 days under 5% CO2. Then the assay plate was equilibrated at room temperature for 10 minutes. To determine cell viability, L CellTiter Glo reagent was added to each well and the assay plate was centrifuged at 1000 rpm for 30 second, incubated at room temperature for 10 min, and analyzed by detecting the luminescence using a multimode plate reader (EnVision 2105, PerkinElmer). The data was then analyzed by software Prism 7.0 from GraphPad and the dose response curves were fit using a three-parameter logistic equation to calculate IC50.
In general terms: ATP-based viability assays read luminescence as a measure of living cells.

The target in data set [3] is T3, Aiolos (protein product of gene IKZF3) (Homo sapiens, UniProt Q9UKT9).
T3 construct: endogenous in cells; host or cells: OCI-LY10
The data set is described as follows: Aiolos degradation in OCI-LY10 (quantitative immunoblotting). It counts as cell-based. The conditions noted are these: OCI-LY10 cells, 6 h, immunoblot relative to actin. The protocol:
as §1, §2

Another data set relates to SUDHL-2 cells. The data set is described as follows: CTG Cell Viability Assay - SUDHL-2. It counts as cell-based. The note with it: Homo sapiens, SU-DHL-2, 96 h; for pIC50: SUDHL-2 cells, 4 days, CellTiter-Glo, read-out: CTG Cell Viability Assay - SUDHL-2: IC50. As for the experimental part: as §3
For another data set, the system named is U2932 (MYD88 WT line). The data set is described as follows: U2932 viability, CTG. The class given is cell-based. The note with it: Homo sapiens, in vitro.
The next data set has as its system SU-DHL6 (MYD88 WT line). The data set is described as follows: SU-DHL6 viability, CTG. The class given is cell-based. The note with it: Homo sapiens, SU-DHL-6, in vitro.
Data set [4] relates to OCI-LY10 (MYD88 mutant DLBCL cell line). The experiment in a line: OCI-LY10 viability, CTG. The class given is cell-based. The conditions noted are these: Homo sapiens, OCI-Ly10, read-out: OCI-LY10 Viability, CTG IC50.
Data set [5] has as its system SU-DHL2 (MYD88 mutant DLBCL cell line). The data set is described as follows: SU-DHL2 viability, CTG. It counts as cell-based. The note with it: Homo sapiens, SU-DHL-2, read-out: SU-DHL2 Viability, CTG IC50.
The subject of another data set is OCI-LY19 (MYD88 WT line). The data set is described as follows: OCI-LY19 viability, CTG. It counts as cell-based. The conditions noted are these: Homo sapiens, in vitro.
[6] abbreviates: 4 hrs incubation, read-out: IRAK4 degradation in OCI-LY10 at 4 hrs: DC50.
The mark [7] stands for this setting: 24 hrs incubation, read-out: IRAK4 degradation in OCI-LY10 at 24 hrs: DC50.

pIC50: −log10 of the molar value. Where two headings read alike, the source gives them in different places. Bounds are passed on as bounds.

T2 sequence (Q13422 whole entry): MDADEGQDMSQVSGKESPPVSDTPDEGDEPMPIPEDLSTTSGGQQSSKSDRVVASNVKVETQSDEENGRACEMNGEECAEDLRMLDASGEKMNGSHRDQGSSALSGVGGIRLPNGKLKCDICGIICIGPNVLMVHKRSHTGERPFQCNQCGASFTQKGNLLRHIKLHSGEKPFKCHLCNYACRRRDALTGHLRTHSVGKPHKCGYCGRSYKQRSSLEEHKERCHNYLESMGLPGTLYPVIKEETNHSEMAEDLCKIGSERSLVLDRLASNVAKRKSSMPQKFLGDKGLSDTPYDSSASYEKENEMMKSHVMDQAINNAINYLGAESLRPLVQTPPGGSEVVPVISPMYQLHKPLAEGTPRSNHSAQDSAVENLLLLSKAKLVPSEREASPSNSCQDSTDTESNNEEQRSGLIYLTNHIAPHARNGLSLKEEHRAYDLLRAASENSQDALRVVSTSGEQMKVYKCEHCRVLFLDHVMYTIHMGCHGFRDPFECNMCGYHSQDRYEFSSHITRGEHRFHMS
T2 sequence (Q96SW2 whole entry): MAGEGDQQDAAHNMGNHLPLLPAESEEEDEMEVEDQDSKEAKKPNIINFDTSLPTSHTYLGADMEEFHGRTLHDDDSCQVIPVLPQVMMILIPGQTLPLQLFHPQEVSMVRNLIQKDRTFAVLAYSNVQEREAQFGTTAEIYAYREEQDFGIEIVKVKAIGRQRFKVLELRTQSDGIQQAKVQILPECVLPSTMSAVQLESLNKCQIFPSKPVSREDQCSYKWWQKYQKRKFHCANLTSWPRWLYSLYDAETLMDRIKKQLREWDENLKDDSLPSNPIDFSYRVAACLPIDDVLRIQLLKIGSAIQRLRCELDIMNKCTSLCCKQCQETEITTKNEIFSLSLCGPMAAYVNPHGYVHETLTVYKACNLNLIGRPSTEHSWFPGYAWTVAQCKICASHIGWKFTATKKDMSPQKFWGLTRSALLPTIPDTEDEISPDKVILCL
T2 sequence (Q16531 whole entry partner): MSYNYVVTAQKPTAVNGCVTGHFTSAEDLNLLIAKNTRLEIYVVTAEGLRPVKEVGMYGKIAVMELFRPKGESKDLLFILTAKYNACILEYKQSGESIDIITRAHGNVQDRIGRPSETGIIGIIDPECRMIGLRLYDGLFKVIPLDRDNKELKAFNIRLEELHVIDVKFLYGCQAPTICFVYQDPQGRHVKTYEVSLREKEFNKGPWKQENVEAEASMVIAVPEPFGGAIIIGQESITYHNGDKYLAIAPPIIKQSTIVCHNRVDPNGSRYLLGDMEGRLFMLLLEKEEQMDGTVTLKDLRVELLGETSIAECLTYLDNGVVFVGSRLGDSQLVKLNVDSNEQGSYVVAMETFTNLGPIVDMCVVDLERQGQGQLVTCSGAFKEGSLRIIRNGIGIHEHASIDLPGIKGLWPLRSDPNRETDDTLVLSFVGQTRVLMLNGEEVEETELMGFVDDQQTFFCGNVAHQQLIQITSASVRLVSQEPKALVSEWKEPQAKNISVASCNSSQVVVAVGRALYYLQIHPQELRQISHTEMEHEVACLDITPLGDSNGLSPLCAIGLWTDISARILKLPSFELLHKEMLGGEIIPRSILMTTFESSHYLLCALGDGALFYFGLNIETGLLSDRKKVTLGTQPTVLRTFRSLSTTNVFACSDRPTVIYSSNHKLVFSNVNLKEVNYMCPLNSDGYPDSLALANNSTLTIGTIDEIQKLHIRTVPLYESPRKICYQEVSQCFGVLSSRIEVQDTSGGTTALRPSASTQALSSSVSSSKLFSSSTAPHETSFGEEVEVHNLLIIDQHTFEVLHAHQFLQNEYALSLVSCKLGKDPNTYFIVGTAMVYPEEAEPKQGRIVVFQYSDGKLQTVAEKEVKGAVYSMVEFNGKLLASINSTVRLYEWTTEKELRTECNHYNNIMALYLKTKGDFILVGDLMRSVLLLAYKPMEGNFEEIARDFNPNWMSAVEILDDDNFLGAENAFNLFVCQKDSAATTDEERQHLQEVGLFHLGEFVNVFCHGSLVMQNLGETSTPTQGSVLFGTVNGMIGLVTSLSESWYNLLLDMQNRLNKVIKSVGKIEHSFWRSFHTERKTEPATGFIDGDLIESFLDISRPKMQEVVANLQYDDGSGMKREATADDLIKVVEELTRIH
T3 sequence (Q9UKT9 whole entry): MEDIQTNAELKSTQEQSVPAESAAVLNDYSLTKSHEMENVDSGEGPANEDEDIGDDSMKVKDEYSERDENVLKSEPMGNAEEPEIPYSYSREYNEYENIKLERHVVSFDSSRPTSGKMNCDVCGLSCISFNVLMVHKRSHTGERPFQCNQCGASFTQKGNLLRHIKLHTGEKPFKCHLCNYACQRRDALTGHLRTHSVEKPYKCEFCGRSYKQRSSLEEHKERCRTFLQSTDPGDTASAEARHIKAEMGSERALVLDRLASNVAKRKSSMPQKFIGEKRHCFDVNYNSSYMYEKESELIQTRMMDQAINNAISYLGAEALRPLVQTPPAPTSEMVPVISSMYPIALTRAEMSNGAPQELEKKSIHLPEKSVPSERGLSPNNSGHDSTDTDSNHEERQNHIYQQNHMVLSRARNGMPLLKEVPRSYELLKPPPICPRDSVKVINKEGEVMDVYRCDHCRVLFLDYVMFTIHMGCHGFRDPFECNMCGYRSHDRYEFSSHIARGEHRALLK
T3 sequence (Q96SW2 whole entry, further chain): as the sequence (Q96SW2 whole entry) above
T3 sequence (Q16531 whole entry partner): as the sequence (Q16531 whole entry partner) above

In data set [1] (the molecule shown is the open-chain precursor, BrettPhos-Pd-G4/BrettPhos/Cs2CO3, dioxane, 53.8 mM, 60.0 °C), `NC(=O)c1cccc(OCCO[C@@H]2CCN(c3cc4nn(C5CCC(CO)CC5)cc4cc3Br)C2)c1` (some centres unmarked) displayed a ring closure, yield after HPLC of 31%.

Consider “12-((1R,4R)-4-(hydroxymethyl)cyclohexyl)-12H-5,8,11-trioxa-2-aza-1(5,6)-indazola-4(2,6)-pyridinacycloundecaphan-3-one”, for which the ring closure, yield after HPLC in data set [1] (BrettPhos Pd G4/Cs2CO3, DMA, 21.2 mM, 80.0 °C) came out at 58%.

For `COc1cc2nn([C@H]3CC[C@H](CN4CC5(CC(CCNc6cccc7c6C(=O)N(C6CCC(=O)NC6=O)C7=O)C5)C4)CC3)cc2cc1NC(=O)c1cccc(C(C)(F)F)n1` (mixture of isomers) [I-93, 6-(1,1-difluoroethyl)-N-[2-[4-[[6-[2-[[2-(2,6-dioxo-3-piperidyl)-1,3-dioxo-isoindolin-4-yl]amino]ethyl]-2-azaspiro[3.3]heptan-2-yl]methyl]cyclohexyl]-6-methoxy-indazol-5-yl]pyridine-2-carboxamide], the DC50 at IRAK4 (setting [6]) was under 50 nM; at IRAK4 (setting [7]) it was 50 to 100 nM; in data set [2], under 50 nM; in data set [3], under 50 nM. The pIC50 in the data set with OCI-LY10 cells is over 7.30; in the data set on SUDHL-2 cells, 6.30 to 7.00.

For `CN(C[C@H]1CC[C@H](n2cc3cc(NC(=O)c4cccc(C(F)(F)F)n4)c(C(C)(C)O)cc3n2)CC1)C1CCN(Cc2cccc3c2n(C)c(=O)n3C2CCC(=O)NC2=O)CC1` (some centres unmarked) [I-1], on IRAK4 (setting [7]), the DC50 lay within 100 to 500 nM. Besides, the pIC50 in the data set with U2932 (MYD88 WT line) was under 5.00; in the data set with SU-DHL6 (MYD88 WT line), 5.25; in [4], under 5.00; in [5], under 5.00; in the data set with OCI-LY19 (MYD88 WT line), under 5.00.

`COc1cc2nn([C@H]3CC[C@H](CN4CCC5(CC4)CC(CCNc4cccc6c4C(=O)N(C4CCC(=O)NC4=O)C6=O)C5)CC3)cc2cc1NC(=O)c1cccc(C(C)(F)F)n1` (some centres unmarked) [I-63, 6-(1,1-Difluoroethyl)-N-[2-[4-[[2-[2-[[2-(2,6-dioxo-3-piperidyl)-1,3-dioxo-isoindolin-4-yl]amino]ethyl]-7-azaspiro[3.5]nonan-7-yl]methyl]cyclohexyl]-6-methoxy-indazol-5-yl]pyridine-2-carboxamide]: the DC50 on IRAK4 (setting [6]) is under 50 nM; at IRAK4 (setting [7]), 50 to 100 nM; in [2] it was under 50 nM; in data set [3], under 50 nM. Further, the IC50 in the data set with OCI-LY10 cells (OCI-Ly10, 96 h, read-out: CTG Cell Viability Assay - OCI-LY10: IC50 (μM)) is 0.05 to 0.1 µM; with SUDHL-2 cells (read-out: CTG Cell Viability Assay - SUDHL-2: IC50 (μM)), 0.1 to 0.5 µM.

Consider `COc1cc2nn([C@H]3CC[C@H](CN4CCC5(CC4)CC(CNc4cccc6c4C(=O)N(C4CCC(=O)NC4=O)C6=O)C5)CC3)cc2cc1NC(=O)c1cccc(C(F)(F)F)n1` (some centres unmarked) [I-201, N-[2-[4-[[2-[[[2-(2,6-dioxo-3-piperidyl)-1,3-dioxo-isoindolin-4 yl]amino]methyl]-7-azaspiro[3.5]nonan-7-yl]methyl]cyclohexyl]-6-methoxy-indazol-5-yl]-6-(trifluoromethyl)pyridine-2-carboxamide], for which the DC50 was under 50 nM on IRAK4 (setting [6]), 50 to 100 nM on IRAK4 (setting [7]), 50 to 100 nM in [2] and under 50 nM in data set [3]. In addition, the figures for the pIC50 in the data set with OCI-LY10 cells and with SUDHL-2 cells were over 7.30 and under 6.00, respectively.
